Results as given in article PMC3097197 (PLoS ONE, 2011).
Entries after “also recorded” stand apart in the source; their conditions may differ.

Experiments:
[1] = tested on: YopE secretion by attenuated Y. pestis; test: microbe, parasite or virus in culture; format: cell-based, Yersinia pestis KIM19; conditions: for inhibition at 100 µM / inhibition at 10 µM: Yersinia pestis, 1 h; for inhibition at 100 µM: read-out: Inhibition of YopE secretion at 100 µM; for inhibition at 10 µM: read-out: Inhibition of YopE secretion at 10 µM
[2] = tested on: HeLa cells incubated with attenuated Y. pestis KIM19 strain; test: cells; conditions: Homo sapiens, 3 h; for inhibition at 10 µM: read-out: Inhibition of HeLa cell toxicity by attenuated Y. pestis at 10 µM; for inhibition at 50 µM: read-out: Inhibition of HeLa cell toxicity by attenuated Y. pestis at 50 µM
in vitro = conditions: human, hela cells
[3] = tested on: HeLa cells incubated with attenuated Y. pestis KIM19 strain
[4] = tested on: Attenuated Y. pestis KIM19 strain; format: cell-based, Yersinia pestis

| Compound | inhibition at 100 µM [1] [%] | Inhibition of YopE secretion (in words) [1] | inhibition at 10 µM [2] [%] | inhibition at 50 µM [2] [%] | cytotoxicity at 100 µM (in vitro) [%] | Inhibition of YopE secretion at 50 µM or lower concentration [1] | inhibition at 10 µM [1] [%] | Effectiveness in the cell infection model (in words) [3] | Effect on growth rate of Y. pestis in bacterial medium (in words) [4] | Cytotoxicity against HeLa cells, inhibition at 100 µM (human HeLa cells) [%] |
| --- | --- | --- | --- | --- | --- | --- | --- | --- | --- | --- |
| CNC(=O)C1CN(C(=O)COC(=O)c2cc(-c3cccs3)nc3ccccc23)c2ccccc2O1 (stereo not shown) [Compound 9652] | 30 | – | – | – | – | – | – | – | – | – |
| CC(=O)Nc1ccc(-c2csc(NC(=O)c3sc4nc(C)cc(C)c4c3C)n2)c(F)c1 [Compound 7146] | – | poor inhibitors of the YopE secretion | – | – | – | – | – | – | – | – |
| O=C(CNC(=O)c1sc2ccccc2c1Cl)Nc1ccc(-n2cnc3ccccc32)cc1 [Compound 7832] | ≥ 80 | – | 0 | 30 | 0 | at least 50% | ≥ 95 | only moderately effective | none of them had a significant effect on the growth rate; also recorded: minimal bacterial growth inhibition | – |
| CC(=O)Nc1ccc(N2C(=O)c3ccc(C(=O)OC(C)C(=O)c4c[nH]c5ccccc45)cc3C2=O)cc1 (stereo not shown) [Compound 7812] | ≥ 80 | – | 0 | 0 | 0 | at least 50% | ≥ 95 | only moderately effective | none of them had a significant effect on the growth rate; also recorded: minimal bacterial growth inhibition | – |
| Cc1ccc(S(=O)(=O)N2CCCN(c3ccc([N+](=O)[O-])c4nonc34)CC2)cc1 [Compound 1504] | – | poor inhibitors of the YopE secretion | – | – | – | – | – | – | – | – |
| O=C(Cc1csc(NC(=O)c2ccccc2)n1)Nn1cnc2scc(-c3ccco3)c2c1=O [Compound 7086] | ≥ 80 | – | 0 | 20 | 26 ± 11 | at least 50% | ≥ 95 | only moderately effective | small bacteriostatic effect; also recorded: some bacteriostatic effect; also recorded: slight inhibition of bacterial growth | – |
| Methanol [reference compound] | – | – | – | – | – | – | – | – | – | 100±1 |
